Source: patent US9375000B2, “Pesticidal arylpyrrolidines” (Bayer Intellectual Property GmbH, priority 2011, dated 2016)

Key:
Assay type in all cases: in vivo
[1] = system: Two-Spotted Spider Mite (Tetranychus urticae); experiment: Two-spotted spider mite (Tetranychus urticae) spray test on kidney bean; conditions: after 7 days; for pest or weed control at 20 ppm: Tetranychus urticae, 168 h, read-out: acaricidal activity
In short: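 Kidney bean plants at the two-leaf stage carried 50-100 adult mites and were sprayed one day later with compound in DMF/polyoxyethylene alkyl phenyl ether diluted in water. Ammonium salt and penetration enhancer at 1000 ppm were added if needed. Acaricidal activity (% mites killed) was scored after 7 days in a greenhouse.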

[2] = system: Cucurbit Leaf Beetle (Aulacophora femoralis); experiment: Cucurbit leaf beetle (Aulacophora femoralis) cucumber leaf dip test; conditions: after 7 days; for pest or weed control at 20 ppm: Aulacophora, foliar, 168 h, read-out: insecticidal activity
In short: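 Cucumber leaves dipped in compound formulated with DMF and polyoxyethylene alkyl phenyl ether, diluted in water, with ammonium salt or ammonium salt plus penetration enhancer at 1000 ppm added if necessary; dried leaves placed on sterilized soil with five second-instar larvae. Kept at 25° C; larval mortality counted after 7 days.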

[3] = system: Larvae of Spodoptera litura; experiment: Larvae of Spodoptera litura, method using artificial feeds; conditions: artificial feed, after 7 days; for pest or weed control at 20 ppm: Spodoptera litura, 168 h, read-out: insecticidal activity (pesticidal ratio)
In short: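 Compound formulated in dimethylformamide with polyoxyethylene alkyl phenyl ether emulsifier, water-diluted and poured onto artificial diet. Five 3rd-instar Spodoptera litura larvae per cup, held at 25° C and 50-60% humidity. Mortality after 7 days expressed as pesticidal ratio.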

[4] = active compound concentration 20 ppm
[5] = active compound concentration 4 ppm
[6] = active compound concentration 100 ppm

| SMILES | acaricidal activity [1, 4] [%] | insecticidal activity [2, 4] [%] | insecticidal activity (pesticidal ratio) [3, 4] [%] | further results |
| --- | --- | --- | --- | --- |
| O=C(NCc1ccc(N2CCC(c3cc(Cl)c(Cl)c(Cl)c3)(C(F)(F)F)C2O)cc1C(F)(F)F)C1CC1 (centres unmarked) [A1-49] | 100 | 100 | 100 |  |
| O=C(CC(F)(F)F)NCc1ccc(N2CCC(c3cc(Cl)c(Cl)c(Cl)c3)(C(F)(F)F)C2O)cc1C(F)(F)F (centres unmarked) [A1-51] | 100 | 100 | 100 |  |
| CCC(=O)NCc1ccc(N2CCC(c3cc(Cl)c(Cl)c(Cl)c3)(C(F)(F)F)C2O)cc1Br (centres unmarked) [A1-162, N-{2-bromo-4-[2-hydroxy-3-(3,4,5-trichlorophenyl)-3-(trifluoromethyl)pyrrolidin-1-yl]benzyl}propanamide] |  |  |  | pest or weed control at 20 ppm [1, 4]: 100%; pest or weed control at 20 ppm [2, 4]: 100%; pest or weed control at 20 ppm [3, 4]: 100% |
| CCC(=O)NCc1ccc(N2CCC(c3cc(F)c(F)c(F)c3)(C(F)(F)F)C2O)cc1C(F)(F)F (centres unmarked) [A1-261] | 100 | 100 | 100 | insecticidal activity (pesticidal ratio) [3, 5]: 100% |
| O=C(NCc1ccc(N2CCC(c3cc(F)c(F)c(F)c3)(C(F)(F)F)C2O)cc1C(F)(F)F)C1CC1 (centres unmarked) [A1-264] | 100 | 100 |  | insecticidal activity [2, 5]: 100%; insecticidal activity (pesticidal ratio) [3, 5]: 80% |
| CCC(=O)NCc1ccc(N2CCC(c3cc(Cl)c(F)c(Cl)c3)(C(F)(F)F)C2O)cc1C(F)(F)F (centres unmarked) [A1-272] | 100 | 100 | 100 |  |
| O=C(NCc1ccc(N2CCC(c3cc(Cl)c(F)c(Cl)c3)(C(F)(F)F)C2O)cc1C(F)(F)F)C1CC1 (centres unmarked) [A1-275] | 100 | 100 | 100 |  |
| CCC(=O)NCc1ccc(N2CCC(c3cc(Cl)c(F)c(Cl)c3F)(C(F)(F)F)C2O)cc1C(F)(F)F (centres unmarked) [A1-283, N-{4-[3-(3,5-dichloro-2,4-difluorophenyl)-2-hydroxy-3-(trifluoromethyl)pyrrolidin-1-yl]-2-(trifluoromethyl)benzyl}propanamide] |  |  |  | pest or weed control at 20 ppm [1, 4]: 100%; pest or weed control at 20 ppm [2, 4]: 100%; pest or weed control at 20 ppm [3, 4]: 100% |
| O=C(NCc1ccc(N2CCC(c3cc(Cl)c(F)c(Cl)c3F)(C(F)(F)F)C2O)cc1C(F)(F)F)C1CC1 (centres unmarked) [A1-286] | 100 | 100 | 100 |  |
| CCC(=O)NCc1ccc(N2CCC(c3cc(Cl)cc(C(F)(F)F)c3)(C(F)(F)F)C2O)cc1C(F)(F)F (centres unmarked) [A1-338] | 100 | 100 | 100 |  |
| O=C(NCc1ccc(N2CCC(c3cc(Cl)cc(C(F)(F)F)c3)(C(F)(F)F)C2O)cc1C(F)(F)F)C1CC1 (centres unmarked) [A1-341] | 100 | 100 | 100 |  |
| CS(=O)(=O)CC(=O)NCc1ccc(N2CCC(c3cc(Cl)cc(C(F)(F)F)c3)(C(F)(F)F)C2O)cc1C(F)(F)F (centres unmarked) [A1-347] | 100 | 100 | 100 |  |
| O=C(NCc1ccc(N2CCC(c3cc(Cl)cc(Cl)c3)(C(F)(F)F)C2O)cc1C(F)(F)F)C1CCC1 (centres unmarked) [A1-361] | 100 | 100 | 100 |  |
| CC(=O)NCc1ccc(N2CCC(c3cc(Cl)cc(Cl)c3F)(C(F)(F)F)C2O)cc1C(F)(F)F (centres unmarked) [A1-405] |  |  |  | acaricidal activity [1, 5]: 100%; insecticidal activity [2, 5]: 100%; insecticidal activity (pesticidal ratio) [3, 5]: 100% |
| CCC(=O)NCc1ccc(N2CCC(c3cc(Cl)cc(Cl)c3F)(C(F)(F)F)C2O)cc1C(F)(F)F (centres unmarked) [A1-406] |  |  |  | acaricidal activity [1, 5]: 100%; insecticidal activity [2, 5]: 100%; insecticidal activity (pesticidal ratio) [3, 5]: 100% |
| CC(=O)NCc1ccc(N2CCC(c3cc(Cl)c(F)c(Cl)c3F)(C(F)(F)F)C2O)cc1Br (centres unmarked) [A1-429] | 100 |  |  | insecticidal activity [2, 5]: 100%; insecticidal activity (pesticidal ratio) [3, 5]: 100% |

| SMILES | acaricidal activity [1, 4] [%] | insecticidal activity [2, 4] [%] | insecticidal activity (pesticidal ratio) [3, 4] [%] | further results |
| --- | --- | --- | --- | --- |
| CCC(=O)NCc1ccc(N2CCC(c3cc(Cl)c(F)c(Cl)c3F)(C(F)(F)F)C2O)cc1Br (centres unmarked) [A1-430] | 100 |  |  | insecticidal activity [2, 5]: 100%; insecticidal activity (pesticidal ratio) [3, 5]: 100% |
| CCC(=O)NCc1cc(F)c(N2CCC(c3cc(Cl)c(Cl)c(Cl)c3)(C(F)(F)F)C2O)cc1F (centres unmarked) [A1-454] | 100 | 100 | 100 |  |
| N#CCC(=O)NCc1ccc(N2CCC(c3cc(C(F)(F)F)cc(C(F)(F)F)c3)(C(F)(F)F)C2O)cc1C(F)(F)F (centres unmarked) [A1-528] |  |  |  | acaricidal activity [1, 5]: 98%; insecticidal activity [2, 5]: 100%; insecticidal activity (pesticidal ratio) [3, 5]: 100% |
| CC(C)(C)OC(=O)NCc1ccc(N2CCC(c3cc(Cl)c(Cl)c(Cl)c3)(C(F)(F)F)C2O)cc1 (centres unmarked) [A1-575] |  |  |  | acaricidal activity [1, 6]: 98%; insecticidal activity [2, 6]: 100%; insecticidal activity (pesticidal ratio) [3, 6]: 80% |
| CC(=O)NCc1ccc(N2CCC(c3cc(Cl)cc(Cl)c3)(C(F)(F)F)C2O)nc1C(F)(F)F (centres unmarked) [A3-1] | 100 | 100 | 100 |  |
| O=C(NCc1ccc(N2CCC(c3cc(Cl)cc(Cl)c3)(C(F)(F)F)C2O)nc1C(F)(F)F)C1CC1 (centres unmarked) [A3-5] | 100 | 100 | 100 |  |
| O=C(CC(F)(F)F)NCc1ccc(N2CCC(c3cc(Cl)cc(Cl)c3)(C(F)(F)F)C2O)nc1C(F)(F)F (centres unmarked) [A3-7] | 100 | 100 | 100 |  |
| CC(=O)NCc1ccc(N2CCC(c3cc(Cl)c(Cl)c(Cl)c3)(C(F)(F)F)C2O)nc1C(F)(F)F (centres unmarked) [A3-12] | 100 | 100 | 100 |  |
| COCCC(=O)NCc1ccc(N2CCC(c3cc(Cl)c(Cl)c(Cl)c3)(C(F)(F)F)C2O)nc1C(F)(F)F (centres unmarked) [A3-19] | 100 | 100 | 100 | acaricidal activity [1, 5]: 100%; insecticidal activity [2, 5]: 100%; insecticidal activity (pesticidal ratio) [3, 5]: 100% |
| CS(=O)(=O)CC(=O)NCc1ccc(N2CCC(c3cc(Cl)c(Cl)c(Cl)c3)(C(F)(F)F)C2O)nc1C(F)(F)F (centres unmarked) [A3-22] | 100 | 100 | 100 |  |
| CC(=O)NCc1ccc(N2CCC(c3cc(C(F)(F)F)cc(C(F)(F)F)c3)(C(F)(F)F)C2O)nc1C(F)(F)F (centres unmarked) [A3-23] | 100 | 100 | 100 |  |
| CCC(=O)NCc1ccc(N2CCC(c3cc(C(F)(F)F)cc(C(F)(F)F)c3)(C(F)(F)F)C2O)nc1C(F)(F)F (centres unmarked) [A3-24] | 100 | 100 | 100 |  |
| O=C(CC1CC1)NCc1ccc(N2CCC(c3cc(C(F)(F)F)cc(C(F)(F)F)c3)(C(F)(F)F)C2O)nc1C(F)(F)F (centres unmarked) [A3-28] | 100 | 100 | 100 |  |
| O=C(CC(F)(F)F)NCc1ccc(N2CCC(c3cc(C(F)(F)F)cc(C(F)(F)F)c3)(C(F)(F)F)C2O)nc1C(F)(F)F (centres unmarked) [A3-29] | 100 | 100 | 100 |  |
| CS(=O)(=O)CC(=O)NCc1ccc(N2CCC(c3cc(C(F)(F)F)cc(C(F)(F)F)c3)(C(F)(F)F)C2O)nc1C(F)(F)F (centres unmarked) [A3-33] | 100 | 100 | 100 |  |
| Cc1nc(N2CCC(c3cc(Cl)c(Cl)c(Cl)c3)(C(F)(F)F)C2O)ccc1CNC(=O)C1CC1 (centres unmarked) [A3-82] | 100 | 100 | 100 |  |
